Data: article PMC12073785, “Design, Synthesis and Biological Evaluation of 3-Hydrazonoindolin-2-one Derivatives as Novel HIV-1 RNase H Inhibitors” (Molecules, 2025)

Tests used:
[1] = Cytotoxicity in mock-infected MT-4 cells, MTT assay; format: cell-based; details: human, mock-infected MT-4 cells; reduction of normal uninfected MT-4 cell viability by 50%
Protocol: (§1) The anti-HIV-1 (strain IIIB) activity evaluation in MT-4 cells was conducted using an optimized MTT assay. The cell lines were obtained from the laboratory (Prof. Erik De Clercq, Rega Institute for Medical Research, KU Leuven, Herestraat 49, Leuven, Belgium). Compounds were serially diluted (5-fold increments, starting from 10× concentration) and dispensed into 96-well plates (25 µL/well) via an automated Biomek 3000 workstation (Beckman Instruments, Fullerton, CA, USA). Parallel experimental groups included virus-infected (50 µL HIV inoculum, 100–300 TCID50) and mock-infected controls (50 µL culture medium). MT-4 cells were centrifuged (220× g, 5 min), resuspended to 6 × 10⁵ cells/mL, and seeded (50 µL/well). After a 5-day incubation, cell viability was quantified by measuring mitochondrial dehydrogenase-mediated MTT-to-formazan conversion using dual-wavelength spectrophotometry (540 nm primary, 690 nm reference). The 50% cytotoxic concentration (CC50) was calculated from triplicate median absorbance values, representing the compound concentration reducing mock-infected cell viability by 50%.

[2] = target: T1, HIV-1 RT-associated RNase H (Human immunodeficiency virus type 1 group M subtype B, UniProt P04585); assay: HIV-1 RT-associated RNase H inhibition (fluorescent RNA/DNA hybrid); format: biochemical; details: for IC50: HIV-1 RT wt, average of three independent determinations, read-out: IC50, concentration required to inhibit 50% of in vitro RNase H activity; for Fold increase in RNase H inhibitory potency compared to compound 6a: IC50 ratio versus 6a
T1 construct: HIV-1 group M subtype B heterodimeric reverse transcriptase (RT) was expressed and purified; made in house; host or cells: Escherichia coli strain M15, p6HRT-Prot expression vector
Protocol: The tested compounds were initially dissolved in dimethyl sulfoxide (DMSO) at a concentration of 50 mM and subsequently serially diluted (ratio 1:3). The compounds were tested as previously described.
Briefly, a reaction mixture containing 50 mM Tris-HCl buffer pH 7.8, 6 mM MgCl2, 1 mM dithiothreitol (DTT), 80 mM KCl, 0.25 μM hybrid RNA/DNA. 25 μM of RNA/DNA hybrid 5′-GAUCUGAGCCUGGAGCU-Fluorescin-3′ (HPLC, dry, QC: Mass Check), 5′-Dabcyl-AGCTCCCAGGCTCAGATC-3′ (HPLC, dry, QC: Mass Check), and increasing concentrations of inhibitors was diluted in DMSO. The activity of the RNase H function associated with HIV-1 RT was quantified by measuring the linear portion of the dose–response curve. The reaction mixture was incubated at 37 °C for 10 min with a Victor Nivo 5 multilabel plate reader (model 1420-051, PerkinElmer, Waltham, MA, USA), and fluorescence signals were recorded at excitation/emission wavelengths of 490/528 nm. Based on the obtained fluorescence data, the inhibitory concentration 50 (IC50) of the target compounds was calculated by interpolation on a dose–response curve. Results are reported as average and standard deviation of at least two independent replicates in triplicate.

[3] = test system: HIV-1 (strain IIIB); assay: Anti-HIV-1 (strain IIIB) activity in MT-4 cells, MTT assay; format: cell-based; details: for EC50: protection of MT-4 cells against HIV-induced cytopathogenicity by 50%; for SI, selectivity index: ratio CC50/EC50, MT-4 cells
Protocol: as §1

[4] = test system: HIV-1 RT R448A; assay: RNase H inhibition with HIV-1 RT R448A mutant versus RT wt; format: biochemical; details: HIV-1 RT R448A versus RT wt
Description: Furthermore, to validate the docking binding prediction of the compounds in the active site of the RT, and the interaction with amino acid residue R448, which was predicted to stabilize the binding of the compounds through a hydrogen bond, we evaluated the activity of compounds 6t and 11a in parallel against the RT wt enzyme and the HIV-1 RT R448A mutant (Figure 6). […] The results confirmed the importance of residue R448 in the binding of inhibitors and validated the predicted binding site to the enzyme; indeed, the less pronounced effect of R448A mutation on 11a inhibitory activity might be explained with the additional hydrogen bound predicted to form between 11a and amino acid Q475 (Figure 6).

[5] = target: T1, HIV-1 RT-associated RNase H; assay: Kinetic analysis of RNase H inhibition, competition with RNA/DNA substrate; format: biochemical; details: for Mode of inhibition: Michaelis Menten and Lineweaver-Burk plots; for Ki: competition with RNA substrate
Description: Based on the docking binding predictions, compound 6t and compound 11a were chosen for further characterization. To study the interaction between the chemical compounds and the enzyme in complex with the substrate, we evaluated the competition of compounds 6a and 11a with the RNA substrate (Figure 5). […] Given the results obtained, it is hypothesized that the binding between the inhibitor and the RT protein may modulate the interaction between the enzyme and the RNA substrate, resulting in an increased apparent KM and decreased apparent Vmax when increasing the concentration of the inhibitor.
Kinetic analysis of the DNA-polymerase independent RNase H activity was performed as already reported. Briefly, a reaction mixture containing 50 mM Tris-HCl buffer pH 7.8, 6 mM MgCl2, 1 mM DTT, 80 mM KCl, and increasing concentrations of hybrid RNA/DNA 5′-GAUCUGAGCCUGGGAGCU-Fluorescin-3′/5′-Dabcyl-AGCTCCCAGGCTCAGATC-3′ was incubated at 37 °C for 10 min with a Victor Nivo 5 multilabel plate reader (model 1420-051, PerkinElmer, Waltham, MA, USA), and fluorescence signals were recorded at excitation/emission wavelengths of 490/528 nm. Results were represented according to Michaelis Menten and Lineaweaver–Burke plots.

[6] = test system: MT-4 cells; assay: Cytotoxicity in mock-infected MT-4 cells, MTT assay; format: cell-based
Protocol: as §1

[7] = Human immunodeficiency virus 1, IIIB, MT4

Row | EC50 [3] | SMILES | CC50 at 5 days [1] | IC50 [2] | Fold increase in RNase H inhibitory potency compared to compound 6a [2] | Fold increase in RNase H inhibitory potency compared to compound 6t ([2]; IC50 ratio versus 6t) | EC50 [3, 7] | SI, selectivity index [3] | Shift of the inhibition curve (loss of potency) [4] | Mode of inhibition [5] | Ki [5] | Vmax (apparent) ([5]; inhibitor 1 μM) | Vmax (apparent) ([5]; inhibitor 2 μM) | Vmax (apparent) ([5]; inhibitor 4 μM) | Vmax (apparent) ([5]; inhibitor 12 μM) | CC50 [6]
1 |  | O=C1Nc2cc(Cl)c(Cl)cc2C1=NNc1c[nH]c(=O)[nH]c1=O [Compound 11a, 5-(2-(5,6-Dichloro-2-oxoindolin-3-ylidene)hydrazineyl)pyrimidine-2,4(1H,3H)-dione] | 402 µM | 1.9 ± 0.01 µM | 40 fold | 4 fold | 39 µM | 10 | two-fold | mixed model inhibitor | 0.55 µM | 105.8 | 98.24 | 41.29 |  | 
2 |  | O=C1Nc2cc(Cl)c(Cl)cc2C1=NNc1cc(=O)[nH]c(=O)[nH]1 [Compound 6t, 6-(2-(5,6-Dichloro-2-oxoindolin-3-ylidene)hydrazineyl)pyrimidine-2,4(1H,3H)-dione] | 294 µM | 7.85 ± 0.55 µM | ~10 fold |  | 110 µM | 3 | four-fold | mixed model inhibitor | 2.31 µM |  |  | 124.2 | 104.6 | 
3 | 0.19 µM | Cc1ccnc2c1NC(=O)c1cccnc1N2C1CC1 [NVP, reference compound] |  |  |  |  |  |  |  |  |  |  |  |  |  | > 15 µM
4 | 0.003 µM | O=C1Nc2ccc(Cl)cc2[C@@](C#CC2CC2)(C(F)(F)F)O1 [EFV, reference compound] |  |  |  |  |  |  |  |  |  |  |  |  |  | > 4.59 µM
